This is an account of results in publication PMC2610245 (Drug metabolism and disposition: the biological fate of …, 2008).

The target of data set [1] is P450 2C9 Baculosomes (Homo sapiens, UniProt P11712). Put plainly: Partition ratio by titration method. The note with it: 30 min pre-incubation, (S)-flurbiprofen as probe substrate.
Data set [2] concerns the target T1, P450 2C9 (Homo sapiens, UniProt P11712). Put plainly: Metabolic stability by substrate depletion. The note with it: 1 μM substrate, 0.04 μM P450 2C9, NADPH 2 mM, 37°C.
In data set [3] the target is T1, P450 2C9. Put plainly: P450 2C9 inactivation assay. Particulars: Hill equation.
In data set [4] the target is T1, P450 2C9. Put plainly: in vitro. Particulars: recombinant enzyme, pH 7.4, in vitro half-life (t1/2).
The conditions of data set [5]: ref Kumar et al., 2002; Mano et al., 2007; cited from earlier work.
Data set [6] concerns P450 2C9. The note with it: in humans; ref Obach et al., 2007; cited from earlier work.

Structures are written as SMILES.

T1 sequence (P11712 whole entry): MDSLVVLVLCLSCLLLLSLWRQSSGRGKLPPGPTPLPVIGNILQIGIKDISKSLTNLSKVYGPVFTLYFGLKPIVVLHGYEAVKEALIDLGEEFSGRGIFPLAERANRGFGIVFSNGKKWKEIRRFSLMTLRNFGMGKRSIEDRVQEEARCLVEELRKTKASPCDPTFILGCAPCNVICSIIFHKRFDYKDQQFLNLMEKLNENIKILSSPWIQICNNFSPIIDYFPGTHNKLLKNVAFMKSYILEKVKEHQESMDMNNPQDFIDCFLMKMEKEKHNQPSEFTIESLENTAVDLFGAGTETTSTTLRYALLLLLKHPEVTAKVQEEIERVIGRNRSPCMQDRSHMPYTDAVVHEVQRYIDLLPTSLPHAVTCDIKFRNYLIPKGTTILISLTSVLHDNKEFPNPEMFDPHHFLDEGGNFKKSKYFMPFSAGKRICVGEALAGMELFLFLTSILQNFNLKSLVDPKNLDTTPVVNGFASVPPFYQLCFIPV
P450 2C9 Baculosomes, sequence (P11712 whole entry): as above

As to `CC(C(=O)O)c1ccc(C(=O)c2cccs2)cc1` (racemic) [(±)-Suprofen, (±)-suprofen], in data set [1], the partition ratio is on record as 98 and the “turnover number (partition ratio + 1)” value is 99. The “in vitro half-life (t1/2)” value in data set [2] is reported as 50 min. Besides, the “n (Hill coefficient)” value in data set [3] (probe substrate (S)-flurbiprofen) was found to be 1.4. The “n (Hill coefficient)” value in data set [3] (probe substrate diclofenac) was 1.3.

Turning to `C[C@@H](C(=O)O)c1ccc(C(=O)c2cccs2)cc1` [(R)-suprofen], the half-life at 1 μM in data set [4] was in the range of 35 to 38 min.

On to `C[C@H](C(=O)O)c1ccc(-c2ccccc2)c(F)c1` [(S)-flurbiprofen], for which, in data set [5], the “cleared by direct glucuronidation of the carboxylate functional groups” value is given as “roughly 50%”.

As for `C[C@H](C(=O)O)c1ccc(C(=O)c2cccs2)cc1` [(S)-suprofen], the half-life at 1 μM in data set [4] lay within 35 to 38 min.

For `CC(=O)C[C@@H](c1ccccc1)c1c(O)c2ccccc2oc1=O` [(S)-warfarin], the “fraction metabolized through P450 2C9 (fm2C9)” value in data set [6] is given as 0.91.

In the case of `O=C(O)COc1ccc(C(=O)c2cccs2)c(Cl)c1Cl` [Tienilic Acid, Tienilic acid], the half-life at 1 μM in data set [4] came to 5 min.

Turning to `O=C(O)Cc1ccccc1Nc1c(Cl)cccc1Cl` [diclofenac], the “cleared by direct glucuronidation of the carboxylate functional groups” value in data set [5] is on record as “roughly 50%”.

Usually half-life stands for the time in which the quantity being followed falls by half.
